Results published in patent US8680290B2, “Isoxazoline derivatives and their use as herbicides” (Syngenta Limited, priority 2004, dated 2014).

What was measured:
[1] = test system: Monocotyledonous and dicotyledonous test plants; experiment: Example B1 herbicidal action, application pre-emergence (Table B1b); assay type: in vivo; conditions: 250 g/ha, evaluated after 4 weeks
In short: (§1)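 Visual damage rating, 10 = plant dead and 0 = unharmed, taken at 3 weeks for post-emergence and 4 weeks for pre-emergence treatment. Application by spray of formulated aqueous solution either immediately after sowing or at 8–9 days' growth, with mono- and dicot plants kept in a greenhouse.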

[2] = test system: Monocotyledonous and dicotyledonous test plants; experiment: Example B2 herbicidal action, application pre-emergence, 96-cell seed trays (Table B2b); assay type: in vivo; conditions: 1000 g/ha
Protocol: Monocotyledonous and dicotyledonous test plants were sown in sterilised standard soil in seed trays each having 96 cells. After one day (pre-emergence) or after 8 to 9 days cultivation (post-emergence) under controlled conditions in a climatic chamber (cultivation at 17/23° C.; 13 hours light; 50-60% humidity; after application at 19/24° C.), the plants were treated with an aqueous spray solution of 1000 mg/l of the active ingredient used (rate of application: […]; incl. 10% DMSO as solvent). The plants were grown on in the climatic chamber until the test was evaluated (10 total damage to plant, 0=no damage to plant) after 9 or 13 days.

[3] = test system: Monocotyledonous and dicotyledonous test plants; experiment: Example B1 herbicidal action, application post-emergence (Table B1a); assay type: in vivo; conditions: 250 g/ha, evaluated after 3 weeks, scale 0-10
In short: as §1

Compound | melting point | herbicidal action (damage rating 0-10), Amaranthus [1] | herbicidal action (damage rating 0-10), Digitaria [1] | herbicidal action (damage rating 0-10), Panicum [1] | herbicidal action (damage rating 0-10), Setaria [1] | herbicidal action (damage rating 0-10), Sida [1] | further results
CC1(C)CC(S(=O)(=O)C(C(N)=O)c2c(F)cccc2F)=NO1 (stereo not drawn) [Compound No. 1.23, 2-(2,6-difluoro-phenyl)-2-(5,5-dimethyl-4,5-dihydroisoxazole-3-sulfonyl)-acetamide] | 175 °C | 7 | 4 | 10 | 7 | 0 | herbicidal action (damage rating 0-10), Agrostis [2]: 10; herbicidal action (damage rating 0-10), Digitaria [2]: 8; herbicidal action (damage rating 0-10), Poa [2]: 10; herbicidal action (damage rating 0-10), Setaria [2]: 8
CC1(C)CC(S(=O)(=O)C(C)(F)c2ccccc2)=NO1 (stereo not drawn) [Compound No. 1.138, 3-(1-fluoro-1-phenyl-ethanesulfonyl)-5,5-dimethyl-4,5-dihydroisoxazole] | 91 to 93 °C | – | – | – | – | – | –
COc1cc(C(Cl)(Cl)S(=O)(=O)C2=NOC(C)(C)C2)on1 [Compound No. 5.02, 5-[dichloro-(5,5-dimethyl-4,5-dihydroisoxazole-3-sulfonyl)-methyl]-3-methoxy-isoxazole] | 118 °C | – | – | – | – | – | –
C#CCC(c1c(F)cccc1F)S(=O)(=O)C1=NOC(C)(C)C1 (stereo not drawn) [Compound No. 1.02] | – | – | – | 6 | 3 | 0 | herbicidal damage rating, Abutilon [3]: 0; herbicidal damage rating, Amaranthus [3]: 9; herbicidal damage rating, Digitaria [3]: 6; herbicidal damage rating, Panicum [3]: 10; herbicidal damage rating, Setaria [3]: 7; herbicidal damage rating, Sida [3]: 5; herbicidal action (damage rating 0-10), Agrostis [2]: 8; herbicidal action (damage rating 0-10), Digitaria [2]: 9; herbicidal action (damage rating 0-10), Poa [2]: 5; herbicidal action (damage rating 0-10), Setaria [2]: 9
Cc1c(Br)noc1C(F)(F)S(=O)(=O)C1=NOC(C)(C)C1 [Compound No. 5.06, 3-bromo-5-[(5,5-dimethyl-4,5-dihydroisoxazole-3-sulfonyl)-difluoro-methyl]-4-methyl-isoxazole] | 70 to 75 °C | – | – | – | – | – | –
CC1(C)CC(S(=O)(=O)C(C(=O)NC2CC2)c2c(F)cccc2F)=NO1 (stereo not drawn) [Compound No. 1.35, N-cyclopropyl-2-(2,6-difluoro-phenyl)-2-(5,5-dimethyl-4,5-dihydroisoxazole-3-sulfonyl)-acetamide] | 150 °C | – | – | – | – | – | –
Cc1onc(C2CC2)c1C(Cl)S(=O)(=O)C1=NOC(C)(C)C1 (stereo not drawn) [Compound No. 3.07, 4-[chloro-(5,5-dimethyl-4,5-dihydroisoxazole-3-sulfonyl)methyl]-3-cyclopropyl-5-methyl-isoxazole] | 159 °C | 4 | 9 | – | 8 | 2 | –
COc1cc(C(F)S(=O)(=O)C2=NOC(C)(C)C2)on1 (stereo not drawn) [Compound No. 5.03, 5-[(5,5-dimethyl-4,5-dihydroisoxazole-3-sulfonyl)-fluoromethyl]-3-methoxy-isoxazole] | 99 °C | 10 | – | – | 9 | 2 | –
CC1(C)CC(S(=O)(=O)C(F)(F)c2c(F)cccc2F)=NO1 [1.20] | – | 10 | 10 | 10 | 10 | 9 | herbicidal damage rating, Abutilon [3]: 7; herbicidal damage rating, Amaranthus [3]: 3; herbicidal damage rating, Digitaria [3]: 6; herbicidal damage rating, Panicum [3]: 0; herbicidal damage rating, Setaria [3]: 6; herbicidal damage rating, Sida [3]: 5; herbicidal action (damage rating 0-10), Agrostis [2]: 10; herbicidal action (damage rating 0-10), Digitaria [2]: 10; herbicidal action (damage rating 0-10), Poa [2]: 10; herbicidal action (damage rating 0-10), Setaria [2]: 10

Further lines, with some results ahead:

melting point | Compound | herbicidal action (damage rating 0-10), Amaranthus [1] | herbicidal action (damage rating 0-10), Digitaria [1] | herbicidal action (damage rating 0-10), Panicum [1] | herbicidal action (damage rating 0-10), Setaria [1] | herbicidal action (damage rating 0-10), Sida [1] | further results
105 to 107 °C | Cn1nc(C(F)(F)F)c(C(F)S(=O)(=O)C2=NOC(C)(C)C2)c1OC1COC1 (stereo not drawn) [Compound No. 2.27, 3-{fluoro-[1-methyl-5-(oxetan-3-yloxy)-3-trifluoromethyl-1H-pyrazol-4-yl]-methanesulfonyl}-5,5-dimethyl-4,5-dihydroisoxazole] | – | – | – | – | – | –
119 °C | CC1(C)CC(S(=O)(=O)C(Cl)(Br)c2c(F)cccc2F)=NO1 (stereo not drawn) [Compound No. 1.53, 3-[bromo-chloro-(2,6-difluorophenyl)-methanesulfonyl]-5,5-dimethyl-4,5-dihydroisoxazole] | 9 | 10 | 10 | 10 | 5 | herbicidal damage rating, Abutilon [3]: 5; herbicidal damage rating, Amaranthus [3]: 7; herbicidal damage rating, Digitaria [3]: 7; herbicidal damage rating, Panicum [3]: 7; herbicidal damage rating, Setaria [3]: 7; herbicidal damage rating, Sida [3]: 2
72 °C | Cc1noc(C2CC2)c1C(Cl)(Cl)S(=O)(=O)C1=NOC(C)(C)C1 [Compound No. 3.06, 5-cyclopropyl-4-[dichloro-(5,5-dimethyl-4,5-dihydroisoxazole-3-sulfonyl)methyl]-3-methyl-isoxazole] | – | – | – | – | – | –
117 to 118 °C | Cn1cc(C(F)(F)F)c(C(F)S(=O)(=O)C2=NOC(C)(C)C2)n1 (stereo not drawn) [Compound No. 4.04, 3-[fluoro-(1-methyl-4-trifluoromethyl-1H-pyrazol-3-yl)-methanesulfonyl]-5,5-dimethyl-4,5-dihydroisoxazole] | – | – | – | – | – | –
113 °C | CC1(C)CC(S(=O)(=O)C(Cl)(CC=C(F)F)c2c(F)cccc2F)=NO1 (stereo not drawn) [Compound No. 1.17, 3-[1-chloro-1-(2,6-difluoro-phenyl)-4,4-difluoro-but-3-ene-1-sulfonyl]-5,5-dimethyl-4,5-dihydroisoxazole] | – | – | – | – | – | –
102 °C | COCC(c1c(F)cccc1F)S(=O)(=O)C1=NOC(C)(C)C1 (stereo not drawn) [Compound No. 1.51, 3-[1-(2,6-difluoro-phenyl)-2-methoxy-ethanesulfonyl]-5,5-dimethyl-4,5-dihydroisoxazole] | 8 | 9 | 9 | 8 | 0 | –
117 °C | C=CC1CC1(c1c(F)cccc1F)S(=O)(=O)C1=NOC(C)(C)C1 (stereo not drawn) [Compound No. 1.46, 3-[1-(2,6-difluoro-phenyl)-2-vinylcylopropane-sulfonyl]-5,5-dimethyl-4,5-dihydroisoxazole] | 3 | 6 | 5 | 3 | 0 | –
101 to 103 °C | Cn1cc(C(F)(F)F)c(C(F)(F)S(=O)(=O)C2=NOC(C)(C)C2)n1 [Compound No. 4.05, 3-[difluoro-(1-methyl-4-trifluoromethyl-1H-pyrazol-3-yl)-methanesulfonyl]-5,5-dimethyl-4,5-dihydro-isoxazole] | – | – | – | – | – | –
95 °C | CC1(C)CC(S(=O)(=O)C(Cc2ccc(F)cc2)c2c(F)cccc2F)=NO1 (stereo not drawn) [Compound No. 1.05, 3-[1-(2,6-difluoro-phenyl)-2-(4-fluoro-phenyl)-ethanesulfonyl]-5,5-dimethyl-4,5-dihydroisoxazole] | – | – | – | – | – | –
